Tests used:
[1] = system: bloodstream form T. brucei brucei; experiment: Resazurin fluorescence-based cell viability assay, T. brucei; parameters: species or system Trypanosoma brucei brucei
T. brucei TryR [2] = biological target: T1, T. brucei TryR (Trypanosoma brucei brucei, UniProt P39051); experiment: TryR enzyme assay; type: biochemical, Trypanosoma brucei brucei strain S427; settings: for ligand efficiency: from T. brucei TryR IC50; for improvement in TryR potency with respect to ester 1c: vs 1c IC50 9.4 μM; for fold less active than 9a against TryR: vs 9a
T1 sequence (P39051 whole entry): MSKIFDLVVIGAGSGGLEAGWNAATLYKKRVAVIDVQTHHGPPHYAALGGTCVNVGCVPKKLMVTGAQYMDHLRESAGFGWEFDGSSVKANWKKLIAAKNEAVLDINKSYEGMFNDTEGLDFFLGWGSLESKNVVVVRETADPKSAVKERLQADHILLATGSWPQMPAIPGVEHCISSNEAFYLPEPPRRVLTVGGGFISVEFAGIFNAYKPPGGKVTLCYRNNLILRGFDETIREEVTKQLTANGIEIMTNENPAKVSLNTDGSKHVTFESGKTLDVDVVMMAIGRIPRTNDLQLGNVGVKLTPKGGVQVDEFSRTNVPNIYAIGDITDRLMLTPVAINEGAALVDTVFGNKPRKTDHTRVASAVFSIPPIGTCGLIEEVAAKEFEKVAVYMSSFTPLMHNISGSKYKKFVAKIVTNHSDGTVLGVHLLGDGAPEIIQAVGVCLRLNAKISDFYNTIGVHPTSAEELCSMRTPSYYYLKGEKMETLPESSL

[3] = Resazurin viability counter-screen, MRC5 cells; type: cell-based; settings: human, MRC-5 cells
T. brucei TryR [4] = biological target: T1, T. brucei TryR; experiment: Mode of inhibition studies; type: biochemical; settings: for mode of inhibition: with respect to trypanothione disulfide

In the case of `CC1=Nc2ccccc2C(c2ccccc2)N1CCN1CCCCC1` (stereo not shown) [15b], the “fold less potent against T. brucei than C6-halogen analogues 9a, 15c, 15d” value [1] is reported as about 10 fold.

For `CC1=Nc2ccc(Cl)cc2C(c2ccccc2)N1CCN1CCN(C(=O)c2ccco2)CC1` (stereo not shown) [13e], the ligand efficiency (T. brucei TryR [2]) was 0.27 kcal mol^–1 per non-H atom and the “improvement in TryR potency with respect to ester 1c” value (from here on “improvement … to ester 1c”) (T. brucei TryR [2]) was 22 fold.

With `CC1=Nc2ccc(-c3ccccc3)cc2C(c2ccccc2)N1CCN1CCCCC1` (racemic) [16a, (R/S)-2-Methyl-4,6-diphenyl-3-(2-(piperidin-1-yl)ethyl)-3,4-dihydroquinazoline] the “fold more potent against T. brucei cells than against TryR” value [1] was 10 fold.

In the case of `CC1=Nc2ccc(Cl)cc2C(C2CCCCC2)N1CCN1CCCCC1` (stereo not shown) [29f], the “fold less active than 9a against TryR” value (T. brucei TryR [2]) is reported as 15 fold.

For `CCN1C(C)=Nc2ccc(Cl)cc2C1c1ccccc1` (stereo not shown) [6k], the ligand efficiency (T. brucei TryR [2]) was > 0.3 kcal mol^–1 per non-H atom.

With `CC1=Nc2ccc(-c3ccsc3)cc2C(c2ccccc2)N1CCN1CCCCC1` (stereo not shown) [16d] the “fold more potent against TryR than other C6-aryls (16a,b,e,f)” value (T. brucei TryR [2]) was 5- to 10 fold.

With `COC(=O)CN1C(C)=Nc2ccc(Br)cc2C1c1ccccc1` (stereo not shown) [1a] the “difference in activity between T. cruzi and T. brucei TryR” value (T. brucei TryR [2]) was under 3 fold, the EC50 [3] was over 50000 nM and the Ki (T. brucei TryR [4]) was 920 ± 60 nM. The mode of inhibition (T. brucei TryR [4]) was “linear competitive inhibitor” and the “reduction in potency between biochemical (TryR IC50) and cell assay (T. brucei EC50)” value [1] was over 5 fold.

For `CC1=Nc2ccc(Cl)cc2C(c2ccccc2)N1CCN1CCCCC1` (racemic) [9a, (R/S)-6-Chloro-2-methyl-4-phenyl-3-(2-(piperidin-1-yl)ethyl)-3,4-dihydroquinazoline], the “selectivity (MRC5 EC50/T. brucei EC50)” value ([1]; ratio, fold) was 11.

In the case of `CC1=Nc2ccc(Cl)cc2C(c2ccccc2)N1CCNC(=O)c1ccco1` (stereo not shown) [11e], the “improvement … to ester 1c” value (T. brucei TryR [2]) is reported as 11 fold and the mode of inhibition (T. brucei TryR [4]) is reported as “mixed mode of inhibition”.

For `CC1=Nc2ccc(Cl)cc2C(c2ccccc2)N1Cc1ccccc1F` (stereo not shown) [6d], the “improvement … to ester 1c” value (T. brucei TryR [2]) was 10 fold.

For `CC1=Nc2ccc(Cl)cc2C(c2ccccc2)N1CCN1CCN(C)CC1` (stereo not shown) [9c], the ligand efficiency (T. brucei TryR [2]) was 0.31 kcal mol^–1 per non-H atom and the “improvement … to ester 1c” value (T. brucei TryR [2]) was 10 fold.

For `COc1cccc(C2c3cc(Cl)ccc3N=C(C)N2CCN2CCCCC2)c1` (stereo not shown) [29d], the “fold less active than 9a against TryR” value (T. brucei TryR [2]) was 15 fold.

In the case of `CC1=Nc2ccc(Cl)cc2C(c2ccccc2)N1CCN1CCN(C(=O)CN(C)C)CC1` (stereo not shown) [13h], the mode of inhibition (T. brucei TryR [4]) is reported as “mixed mode of inhibition”.

In the case of `CC1=Nc2ccc(-c3ccco3)cc2C(c2ccccc2)N1CCN1CCCCC1` (stereo not shown) [16c], the “fold more potent against TryR than other C6-aryls (16a,b,e,f)” value (T. brucei TryR [2]) is reported as 5- to 10 fold.

With `CC1=Nc2ccc(Cl)cc2C(c2ccc(C)cc2)N1CCCN(C)C` (stereo not shown) [29a, 3-(6-Chloro-2-methyl-4-p-tolylquinazolin-3(4H)-yl)-N,N-dimethylpropan-1-amine] the ligand efficiency (T. brucei TryR [2]) was > 0.3 kcal mol^–1 per non-H atom, the “improvement in TryR potency cf. 9e” value (T. brucei TryR [2]; vs 9e IC50 1.0 μM) was 4 fold and the “TryR Ki′” value (T. brucei TryR [4]; mixed inhibition, enzyme–T[S]2 complex) was 1460 nM. The mode of inhibition (T. brucei TryR [4]) was “linear mixed”.

With `CC1=Nc2ccc(Cl)cc2C(c2ccccc2)N1Cc1cccc(N(C)C)c1` (stereo not shown) [6g] the “improvement … to ester 1c” value (T. brucei TryR [2]) was 10 fold.

In the case of `COC(=O)CN1C(C)=Nc2ccc(C)cc2C1c1ccccc1` (stereo not shown) [1b], the “difference in activity between T. cruzi and T. brucei TryR” value (T. brucei TryR [2]) is reported as under 3 fold.

For `CC1=Nc2ccc(Cl)cc2C(c2ccccc2)N1Cc1ccccc1` (racemic) [6a, (R/S)-3-Benzyl-6-chloro-2-methyl-4-phenyl-3,4-dihydroquinazoline], the “improvement … to ester 1c” value (T. brucei TryR [2]) was 10 fold.

For `CC1=Nc2ccc(Br)cc2C(c2ccccc2)N1CCN1CCCCC1` (stereo not shown) [15c, 6-bromo-2-methyl-4-phenyl-3-(2-(piperidin-1-yl)ethyl)-3,4-dihydroquinazoline], the “fold more potent against TryR than C6-phenyl analogue 16a” value (T. brucei TryR [2]) was 10 fold.

In the case of `N=C(N)c1ccc(OCCCCCOc2ccc(C(=N)N)cc2)cc1` [Pentamidine, pentamidine, reference compound], the EC50 ([1]; Trypanosoma brucei, read-out: T. brucei EC50 (positive control)) is reported as 5 nM.

For `COC(=O)CN1C(C)=Nc2ccc(Br)cc2C1c1ccccc1Cl` (stereo not shown) [1d], the “TryR IC50” value (T. brucei TryR [2]; recombinant T. brucei TryR, mean of at least two replicates) was “inactive”.
